Measurements reported in patent US4931352A, “Antifungal fermentation product” (Merck & Co., Inc., priority 1989, dated 1990).
Starred links: 1 amine or outer side, 2 acyl side, 3 side chain; linkers in the order of their positions; H or OH if unused. Positions of bridges follow the written chain, without caps; N, C: chain ends. Non-standard residues stand in square brackets, D forms with d. Residues, ends and D or L forms follow the SMILES beside them. ξ: configuration not given here. *: point of attachment. ξOrn(4,5-diOH) = O=C(C(CC(O)C(O)N[*:3])N[*:1])[*:2]; ξhTyr(βξ-OH,γξ-OH) = NC(C(=O)O)C(O)C(O)c1ccc(O)cc1; ξPro(3ξ-OH,4ξ-Me) = CC1CNC(C(=O)O)C1O; X2 = NC(=O)CC(O)C(N[*:1])C(=O)[*:2]; X1 = CCC(C)CC(C)CCCCCCCCC(=O)*; Hyp = O=C(O)[CH]1C[CH](O)CN1

Assays:
[1] = system: filamentous fungi Cochliobolus miyabeanus, Penicillium sp. (three strains), Aspergillus niger, Trichoderma sp., Trichoderma liqnorum, Alternaria solani …; experiment: disc diffusion method, filamentous fungi; assay type: cell-based; details: 25 microliter/disc, 28° C. or 37° C., 24 hours
Protocol: (§1) This may be seen in an antifungal assay employing a disc diffusion method against yeasts and filamentous fungi (molds).
(§2) In the disc diffusion method, seeded assay plates are first prepared in one of the following manners according to the type of organism.
Inocula for filamentous fungi are prepared by scraping the surface of stock plates maintained on potato dextrose agar with a moistened sterile dacron swab. The spores and mycelia are then suspended in 10 milliliters of sterile potato dextrose broth and adjusted to 70 percent transmission at 660 nm.
(§3) For three strains of Candida albicans and one strain of Saccharomyces cerevisiae, sterile saline is employed in place of potato dextrose broth. Assay plates are prepared by diluting the inoculum into appropriate molten agar medium, cooled to 45° C. to obtain a final concentration of 4 percent (volume/volume).
(§4) The seeded agar media thus prepared are dispensed into petri dishes for assays (11 milliliters per dish).
(§5) The samples to be tested for production of antifungal agent are applied to 6.2 mm. filter paper discs (25 microliter/disc) and air dried at 24° C. When the sample to be tested is a crude broth, it may be centrifuged prior to application. […] Following incubation, the inhibition zones are measured and recorded.

[2] = system: yeasts Saccharomyces cerevisiae, Candida albicans, Candida rugosa, Brettanomyces bruxellensis, Torulospora hansenii, Candida guilliermondii, Candida …; experiment: disc diffusion method, yeasts; assay type: cell-based; details: 25 microliter/disc, 28° C. or 37° C., 24 hours
Protocol: as §1, §2
Inocula for yeasts are prepared from overnight broth cultures then diluted into potato dextrose […] to a final concentration of either 40 percent or 70 percent transmission at 660 nm.
as §3, §4
as §5, with “application. The discs bearing the material to be tested are then applied employing sterile conditions to the seeded assay plates and the samples rewet with 25 percent sterile aqueous dimethylsulfoxide (25 μl/disc).” for “application.”

in vitro = assay type: cell-based; details: mouse; fresh blood of CD-1 female mice; 25° C., two hours; highest drug concentration that did not lyse the red blood cells; tested 0.39 to 400 μg/ml in 5 percent dextrose; read-out: minimum lytic concentration (MLC)
Protocol: The property of Compound I of requiring concentration of drug far above the therapeutic dose levels to effect red blood cell lysis was discovered in a standard titration/hemolysis assay using fresh blood drawn from CD-1 female mice. Concentration of drug in the range of from 0.39 to 400 μg/ml in 5 percent dextrose and a drug free control were employed.
In carrying out the determination, the assay tubes prepared by mixing together 2 milliliters of appropriate drug dilution and 0.5 milliliter of red blood cell suspension were gently shaken to mix the contents and then the tubes were incubated at 25° C. for two hours. At the end of this time, the tubes were examined visually for complete or partial red blood cell hemolysis and compared to a drug free control. […] The MLC for Compound I was 400 μg/ml.

[3] = solubility in organic solvents; details: methanol, ethanol, dimethylformamide, dimethyl sulfoxide, ethyl acetate and the like
Candida albicans [4] = experiment: similar assay (MIC), expanded panel of 34 strains of Candida albicans; assay type: cell-based; details: 48 h; only against 5 of 34 strains of Candida albicans
Protocol: (§6) The activity may be seen in an agar dilution assay employing a yeast nitrogen base dextrose agar medium. In carrying out the assay, Compound I was solubilized in 10 percent dimethyl sulfoxide (DMSO) supplemented with one drop of Tween 20. Twofold dilutions were made with sterile distilled water/10 percent DMSO to obtain final drug concentrations in the agar dilution assay plates ranging from 128 to 0.06 μg/ml.
(§7) The yeast cultures, maintained in yeast maltose (YM) broth, were transferred to fresh YM medium and incubated overnight at 35° C. with shaking (250 rpm). After incubation, each culture was diluted in sterile saline to yield a final concentration of 3×10^5 to 3×10^6 colony forming units (CFU)/ml.
(§8) Each prepared plate was inoculated using a Denley Multipoint Inoculator (Denley, Sussex, England) which delivers approximately 0.001 milliliter to the ar surface resulting in inoculation of from 3×10^2 to 3×10^3 CFUs. The plates were incubated at 28° C. for 48 hours. The minimum inhibitory concentrations (MICs) were recorded as the lowest concentrations of drug showing no growth or less than three CFU/spot.
In a similar assay, Compound I was tested against an expanded panel of 34 different strains of Candida albicans and 13 different strains of Candida parapsilosis.

Candida albicans [5] = experiment: agar dilution assay (MIC), Candida albicans; assay type: cell-based; details: C. albicans strain MY1029; possible media interference with drug activity
Protocol: as §6, §7, §8

Candida albicans [6] = experiment: mice infected with Candida albicans; assay type: in vivo

CCC(C)CC(C)CCCCCCCCC(=O)NC1CC(O)C(O)NC(=O)C2C(O)C(C)CN2C(=O)C(C(O)CC(N)=O)NC(=O)C(C(O)C(O)c2ccc(O)cc2)NC(=O)C2CC(O)CN2C(=O)C(C(C)O)NC1=O [Compound I, 1-[(4R, 5R)-4,5-dihydroxy-N^2-(10,12-dimethyl-1-oxotetradecyl)-L-ornithine]-5-(threo-3-hydroxy-L-glutamine)echinocandin B] (X1-[ξOrn(4,5-diOH)]T[Hyp][ξhTyr(βξ-OH,γξ-OH)][X2][ξPro(3ξ-OH,4ξ-Me)]; lactam 1-C; configuration not given here)
antifungal properties (inhibition zones) [1]: good antifungal properties
antifungal properties (inhibition zones) [2]: good antifungal properties
MNTC at 2 h (in vitro): 400 µg/mL
solubility in organic solvents [3]: soluble
MIC (Candida albicans [4]): > 1 µg/mL
growth observed (footnote to MIC) (Candida albicans [5]): Substantially reduced growth was observed
eradication of Candida albicans from kidneys (Candida albicans [6]; kidneys of experimentally infected mice): eradicate Candida albicans from kidneys
survival of mice infected with Candida albicans (Candida albicans [6]; mice infected with Candida albicans): significantly prolong the survival
